Laboratory results published in patent US6395526B1, “DNA polymerase” (Takara Shuzo Co., Ltd., priority 1995, dated 2002).

Tests used:
[1] = molecular target: T1, DNA polymerase of the present invention (Pyrococcus furiosus, UniProt P81409); experiment: Inhibition by aphidicolin of the DNA polymerase of the present invention; type: biochemical; settings: 2.0 mM aphidicolin
T1 construct: made in house; host or cells: Escherichia coli JM109 carrying pFU1001 (genomic XbaI-XbaI fragment in pTV118N)
T1 sequence (P81409 1-1263): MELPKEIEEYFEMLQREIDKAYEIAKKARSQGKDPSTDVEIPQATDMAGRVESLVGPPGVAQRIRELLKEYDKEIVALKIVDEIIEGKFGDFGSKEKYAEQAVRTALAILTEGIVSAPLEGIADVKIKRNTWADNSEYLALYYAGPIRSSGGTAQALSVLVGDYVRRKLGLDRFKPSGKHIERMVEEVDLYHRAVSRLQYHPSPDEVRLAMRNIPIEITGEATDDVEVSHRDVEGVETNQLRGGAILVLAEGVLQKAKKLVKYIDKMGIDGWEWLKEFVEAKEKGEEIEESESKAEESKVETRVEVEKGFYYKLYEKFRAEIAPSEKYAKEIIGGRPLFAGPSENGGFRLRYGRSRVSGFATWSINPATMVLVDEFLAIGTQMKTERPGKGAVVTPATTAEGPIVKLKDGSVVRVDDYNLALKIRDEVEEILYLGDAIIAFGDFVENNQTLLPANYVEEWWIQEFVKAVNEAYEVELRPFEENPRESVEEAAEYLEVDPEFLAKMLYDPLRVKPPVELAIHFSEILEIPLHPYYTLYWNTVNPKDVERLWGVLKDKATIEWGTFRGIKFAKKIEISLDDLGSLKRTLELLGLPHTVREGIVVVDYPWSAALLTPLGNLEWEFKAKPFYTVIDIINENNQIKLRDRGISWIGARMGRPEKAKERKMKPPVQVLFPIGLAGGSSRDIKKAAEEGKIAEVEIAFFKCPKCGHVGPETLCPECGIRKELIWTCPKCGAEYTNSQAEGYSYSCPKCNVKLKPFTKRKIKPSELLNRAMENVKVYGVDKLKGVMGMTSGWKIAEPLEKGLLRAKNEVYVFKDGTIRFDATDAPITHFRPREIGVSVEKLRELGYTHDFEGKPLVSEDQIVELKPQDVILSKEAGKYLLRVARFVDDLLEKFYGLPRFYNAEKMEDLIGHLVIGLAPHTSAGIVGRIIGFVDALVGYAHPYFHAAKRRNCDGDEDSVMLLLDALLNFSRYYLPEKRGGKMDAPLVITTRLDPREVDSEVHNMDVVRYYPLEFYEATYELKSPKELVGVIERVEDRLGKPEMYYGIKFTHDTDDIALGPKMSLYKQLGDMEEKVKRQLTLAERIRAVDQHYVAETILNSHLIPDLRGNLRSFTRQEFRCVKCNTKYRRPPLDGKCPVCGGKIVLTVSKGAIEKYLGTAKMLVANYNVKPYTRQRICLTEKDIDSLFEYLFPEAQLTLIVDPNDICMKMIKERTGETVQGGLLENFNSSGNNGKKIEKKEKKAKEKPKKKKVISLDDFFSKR
T1 sequence (P81412 1-613 partner): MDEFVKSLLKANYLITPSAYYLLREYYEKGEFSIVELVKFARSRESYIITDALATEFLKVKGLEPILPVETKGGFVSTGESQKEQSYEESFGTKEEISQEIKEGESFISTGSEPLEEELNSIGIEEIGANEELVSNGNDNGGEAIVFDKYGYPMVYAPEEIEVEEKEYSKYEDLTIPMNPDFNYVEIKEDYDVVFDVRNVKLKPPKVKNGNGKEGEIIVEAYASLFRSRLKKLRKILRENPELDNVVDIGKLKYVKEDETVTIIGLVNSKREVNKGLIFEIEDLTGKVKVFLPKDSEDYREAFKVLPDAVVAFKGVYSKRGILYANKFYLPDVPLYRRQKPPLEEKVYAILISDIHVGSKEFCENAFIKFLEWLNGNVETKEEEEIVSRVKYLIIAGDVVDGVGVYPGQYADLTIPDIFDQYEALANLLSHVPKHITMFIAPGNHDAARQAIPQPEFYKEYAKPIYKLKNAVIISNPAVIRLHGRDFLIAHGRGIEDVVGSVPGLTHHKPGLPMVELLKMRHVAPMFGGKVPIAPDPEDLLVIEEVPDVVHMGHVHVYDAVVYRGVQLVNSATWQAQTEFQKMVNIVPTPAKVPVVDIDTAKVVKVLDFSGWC
Method: (§1) In order to compare the modes of inhibition by inhibitors, the modes of inhibition of the DNA polymerase of the present invention and an α-type DNA polymerase derived from Pyrococcus furiousus (Pfu DNA polymerase, manufactured by Stratagene), a known DNA polymerase, were compared using a specific inhibitor of α-type DNA polymerases, aphidicolin. The activity changes were examined, while the aphidicolin concentration was increased from 0 to 2.0 mM in the presence of 20 mM Tris-HCl, pH 7.7, 15 mM MgCl2, 2 mM 2-mercaptoethanol, 0.2 mg/ml activated DNA, and 40 μM each of dATP, dGTP, dCTP and dTTP.

[2] = molecular target: T2, Pfu DNA polymerase (Pyrococcus furiosus, UniProt P61875); experiment: Inhibition by aphidicolin of Pfu DNA polymerase; type: biochemical, Pyrococcus furiousus; settings: 1.0 mM aphidicolin
T2 construct: purchased Stratagene
T2 sequence (P61875 1-775): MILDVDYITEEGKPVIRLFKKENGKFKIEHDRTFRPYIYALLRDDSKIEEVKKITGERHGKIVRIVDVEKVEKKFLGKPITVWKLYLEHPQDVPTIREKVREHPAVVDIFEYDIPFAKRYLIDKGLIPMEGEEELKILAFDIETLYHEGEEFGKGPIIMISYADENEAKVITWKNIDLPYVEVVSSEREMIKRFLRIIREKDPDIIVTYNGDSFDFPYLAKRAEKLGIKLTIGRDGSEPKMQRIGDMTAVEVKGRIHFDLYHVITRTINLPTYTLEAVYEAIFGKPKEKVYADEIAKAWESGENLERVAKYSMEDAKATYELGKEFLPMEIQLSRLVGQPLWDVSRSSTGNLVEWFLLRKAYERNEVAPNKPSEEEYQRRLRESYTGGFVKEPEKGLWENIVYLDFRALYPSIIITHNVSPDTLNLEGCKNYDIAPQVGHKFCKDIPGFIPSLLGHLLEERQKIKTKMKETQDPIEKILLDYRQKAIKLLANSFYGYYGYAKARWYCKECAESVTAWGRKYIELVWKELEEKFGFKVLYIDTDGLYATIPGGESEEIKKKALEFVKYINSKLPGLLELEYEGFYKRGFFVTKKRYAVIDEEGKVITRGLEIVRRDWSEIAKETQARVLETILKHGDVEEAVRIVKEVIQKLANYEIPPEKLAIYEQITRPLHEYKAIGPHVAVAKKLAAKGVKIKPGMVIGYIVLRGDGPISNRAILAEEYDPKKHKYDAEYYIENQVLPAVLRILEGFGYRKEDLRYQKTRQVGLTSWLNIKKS
Method: as §1

SMILES: C[C@@]1(CO)[C@H](O)CC[C@@]2(C)[C@H]1CC[C@H]1C[C@@H]3C[C@@]12CC[C@]3(O)CO [aphidicolin]
- inhibition of the DNA polymerase of the present invention [1]: not inhibited at all
- activity of the Pfu DNA polymerase relative to the original activity [2]: 20%
